Values after ≈ are worked out from the molar mass of the structure shown.
Assays:
Escherichia coli = test: Antibacterial activity against Escherichia coli ATCC 25922 incubated for 16 to 18 hrs by CLSI based broth dilution method; format: functional; conditions: time 16-18 hrs
[1] = tested on: Staphylococcus epidermidis; test: Antibacterial activity against Staphylococcus epidermidis ATCC 12228 incubated for 16 to 18 hrs by CLSI based broth dilution method; format: functional; conditions: time 16-18 hrs
Enterococcus faecalis = test: Antibacterial activity against Enterococcus faecalis ATCC 29212 incubated for 16 to 18 hrs by CLSI based broth dilution method; format: functional; conditions: time 16-18 hrs
Acinetobacter baumannii = test: Antibacterial activity against Acinetobacter baumannii ATCC 19606 incubated for 16 to 18 hrs by CLSI based broth dilution method; format: functional; conditions: time 16-18 hrs
HCT-116 = test: Cytotoxicity against human HCT-116 cells measured after 72 hrs by MTT assay; format: functional, cell-based; conditions: HCT-116, 72 h
[2] = molecular target: T1, Dihydrofolate reductase (Homo sapiens) (UniProt P00374); test: Inhibition of human DHFR at 1 uM incubated for 10 mins in presence of NADPH by colorimetry based analysis relative to control
T1 sequence (whole entry): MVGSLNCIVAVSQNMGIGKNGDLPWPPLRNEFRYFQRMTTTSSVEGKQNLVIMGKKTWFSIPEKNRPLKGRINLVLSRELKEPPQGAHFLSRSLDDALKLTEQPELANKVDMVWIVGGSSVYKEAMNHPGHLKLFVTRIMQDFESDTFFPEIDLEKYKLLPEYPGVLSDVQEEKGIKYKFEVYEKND

HGC-27 = test: Cytotoxicity against human HGC-27 cells measured after 72 hrs by MTT assay; format: functional, cell-based; conditions: HGC-27, 72 h
HepG2 = test: Cytotoxicity against human HepG2 cells measured after 72 hrs by MTT assay; format: functional, cell-based; conditions: HepG2, 72 h
Staphylococcus aureus [3] = test: Antibacterial activity against Staphylococcus aureus ATCC 29213 incubated for 16 to 18 hrs by CLSI based broth dilution method; format: functional; conditions: time 16-18 hrs
Staphylococcus aureus [4] = test: Antibacterial activity against methicillin-resistant Staphylococcus aureus ATCC 43300 incubated for 16 to 18 hrs by CLSI based broth dilution method; format: functional; conditions: time 16-18 hrs
MCF7 = test: Cytotoxicity against human MCF7 cells measured after 72 hrs by MTT assay; format: functional, cell-based; conditions: MCF7, 72 h

| Compound | MIC (Escherichia coli) [µg/mL] | MIC [1] [µg/mL] | MIC (Enterococcus faecalis) [µg/mL] | MIC (Acinetobacter baumannii) [µg/mL] | IC50 (HCT-116) [nM] | inhibition [2] [%] | IC50 (HGC-27) [nM] | IC50 (HepG2) [nM] | MIC (Staphylococcus aureus [3]) [µg/mL] | MIC (Staphylococcus aureus [4]) [µg/mL] | IC50 (MCF7) [nM] |
| --- | --- | --- | --- | --- | --- | --- | --- | --- | --- | --- | --- |
| Nc1nc(N)c2c(ccc3c2ccn3Cc2cc3ccccc3s2)n1 | 0.25 (≈ 0.724 µM) | ≤ 0.004 | 0.125 (≈ 0.362 µM) | 32 (≈ 92.6 µM) | 1940 | 70.9 | 510 | 270 | 0.125 (≈ 0.362 µM) | 0.125 (≈ 0.362 µM) | 910 |
| COC(=O)c1ccc2nc(Cn3ccc4c5c(N)nc(N)nc5ccc43)ccc2c1 | 2 (≈ 5.02 µM) | 0.25 (≈ 0.627 µM) | 0.25 (≈ 0.627 µM) | – | 210 | 64.5 | < 100 | 430 | 0.5 (≈ 1.25 µM) | 0.25 (≈ 0.627 µM) | 850 |
| COC(=O)c1ccc2nc(Cn3ccc4c5c(N)nc(N)nc5ccc43)sc2c1 | > 8 | 0.008 (≈ 0.0198 µM) | 2 (≈ 4.94 µM) | > 32 | 720 | – | 240 | 490 | 4 (≈ 9.89 µM) | 2 (≈ 4.94 µM) | > 10000 |
| Nc1nc(N)c2c(ccc3c2ccn3Cc2ccc3nc(N)sc3c2)n1 | 4 (≈ 11.1 µM) | ≤ 0.004 | 2 (≈ 5.53 µM) | > 32 | 4 | 90.2 | 6 | 61 | 2 (≈ 5.53 µM) | 2 (≈ 5.53 µM) | 250 |
| Nc1nc(N)c2c(ccc3c2ccn3Cc2ccc3sccc3c2)n1 | 0.25 (≈ 0.724 µM) | ≤ 0.004 | 0.06 (≈ 0.174 µM) | 4 (≈ 11.6 µM) | 8800 | 87 | 560 | 530 | 0.06 (≈ 0.174 µM) | 0.03 (≈ 0.0868 µM) | 510 |
| Nc1nc(N)c2c(ccc3c2ccn3Cc2cc3ccccc3o2)n1 | 0.25 (≈ 0.759 µM) | ≤ 0.004 | 0.25 (≈ 0.759 µM) | 32 (≈ 97.2 µM) | 4800 | 29.1 | 590 | 1070 | 0.25 (≈ 0.759 µM) | 0.25 (≈ 0.759 µM) | 1000 |
| Nc1nc(N)c2c(ccc3c2ccn3Cc2nc3ccccc3o2)n1 | 0.25 (≈ 0.757 µM) | 0.008 (≈ 0.0242 µM) | 0.25 (≈ 0.757 µM) | 16 (≈ 48.4 µM) | 40 | 16.1 | 69 | 660 | 0.5 (≈ 1.51 µM) | 0.25 (≈ 0.757 µM) | 970 |
| Nc1nc(N)c2c(ccc3c2ccn3Cc2ccc(Br)c3ccccc23)n1 | 1 (≈ 2.39 µM) | ≤ 0.004 | 0.125 (≈ 0.299 µM) | – | < 100 | 74.1 | < 100 | < 100 | 0.25 (≈ 0.598 µM) | 0.125 (≈ 0.299 µM) | 190 |
| Nc1nc(N)c2c(ccc3c2ccn3Cc2ccc3cc(C(=O)O)ccc3c2)n1 | > 128 | ≤ 0.004 | 50 (≈ 130 µM) | – | 100 | 98.8 | 95 | 140 | 0.004 (≈ 0.0104 µM) | 0.004 (≈ 0.0104 µM) | 550 |
| Nc1nc(N)c2c(ccc3c2ccn3Cc2ccc3occc3c2)n1 | 0.125 (≈ 0.38 µM) | ≤ 0.004 | 0.03 (≈ 0.0911 µM) | 1 (≈ 3.04 µM) | 2460 | 64.5 | 410 | 1250 | 0.06 (≈ 0.182 µM) | 0.004 (≈ 0.0121 µM) | 1000 |
| Nc1nc(N)c2c(ccc3c2cc(-c2ccccc2)n3Cc2nc3ccccc3s2)n1 | > 128 | 64 (≈ 151 µM) | 32 (≈ 75.7 µM) | > 128 | > 1000 | 17.3 | > 1000 | > 1000 | > 128 | > 128 | > 1000 |

Source: ChEMBL document CHEMBL5370585, “Exploration and Biological Evaluation of 1,3-Diamino-7H-pyrrol[3,2-f]quinazoline Derivatives as Dihydrofolate Reductase Inhibitors” (J Med Chem, 2023)
